Data set [1] concerns the target T1, Solute carrier family 22 member 6 (Rattus norvegicus, UniProt O35956).
T1 sequence (O35956 whole entry): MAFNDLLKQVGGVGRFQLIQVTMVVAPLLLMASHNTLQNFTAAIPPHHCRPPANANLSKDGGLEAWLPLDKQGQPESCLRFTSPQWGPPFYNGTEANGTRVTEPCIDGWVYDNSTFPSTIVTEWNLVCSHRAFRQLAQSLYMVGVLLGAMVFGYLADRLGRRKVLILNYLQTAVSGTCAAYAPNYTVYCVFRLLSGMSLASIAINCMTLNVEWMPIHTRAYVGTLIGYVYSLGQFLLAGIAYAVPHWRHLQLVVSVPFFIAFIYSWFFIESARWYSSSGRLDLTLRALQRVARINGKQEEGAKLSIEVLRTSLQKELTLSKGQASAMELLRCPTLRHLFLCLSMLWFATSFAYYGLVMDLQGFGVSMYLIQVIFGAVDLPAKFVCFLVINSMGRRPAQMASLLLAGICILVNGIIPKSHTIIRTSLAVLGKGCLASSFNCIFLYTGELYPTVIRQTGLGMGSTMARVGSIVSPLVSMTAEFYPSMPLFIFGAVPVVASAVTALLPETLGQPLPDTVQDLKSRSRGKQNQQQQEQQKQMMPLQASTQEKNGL
The data set can be described thus: TP_TRANSPORTER: inhibition of Ochratoxin A uptake (OTA: 1 uM, Aspartame: 1000 uM) in Xenopus laevis oocytes. The format is functional, cell-based. Particulars: oocyte.

Data set [2] addresses T1, Solute carrier family 22 member 6. The data set can be described thus: TP_TRANSPORTER: inhibition of Ochratoxin A uptake (OTA: 1 uM, Citrinin: 200 uM) in Xenopus laevis oocytes. The format is functional, cell-based. Particulars: oocyte.

For `COC(=O)[C@H](Cc1ccccc1)NC(=O)[C@@H](N)CC(=O)O`, the Activity result in data set [1] is “is not an inhibitor [-]”. In the case of `CC1=C2C(=CO[C@H](C)[C@H]2C)C(O)=C(C(=O)O)C1=O` [CITRININ], in data set [2], the Activity entry is “inhibitor [(at a rough estimate) 20 % of control]”.

The values are drawn from ChEMBL document CHEMBL2074284, “Transport of ochratoxin A by renal multispecific organic anion transporter 1” (J Pharmacol Exp Ther, 1999).
